Patent publication US8653132B2, “Phosphaplatins and their use in pharmaceutical compositions” (Ohio University, priority 2007, dated 2014)

Experiments:
[1] = system: calf-thymus DNA, oligonucleotide, dGpG, 5'-dGMP and 5'-dAMP; test: Platinum binding to DNA and nucleotides by NMR; settings: 1H NMR, up to seven days
Protocol: (§1) In the associated experiment, dach-2 was allowed to react with double-stranded calf-thymus DNA, a synthetic oligonucleotide (5′-[…]-3′; SEQ ID NO:1), a dinucleotide (dGpG), and nucleotide monophosphates (5′-dGMP and 5′-dAMP) at concentrations as much as 250-times higher than those of cellular doses. The extent of DNA binding was monitored by ^1H NMR spectroscopy. In parallel, similar reactions with cisplatin were conducted under identical conditions.
(§2) Proton NMR spectroscopic experiments were conducted on a Bruker 500 MHz NMR instrument in 99% (atom) D2O with a water suppression pulse sequence. Samples contained cisplatin (2.0 mM) or pyrodach-2 (2.0 mM) and nucleotides (5′-dGMP, 5′-dAMP, dGpG (5.0 mM)), and, single- and double stranded DNA (calf thymus, 5.0 mM) at pH 7.0 maintained by phosphate and carbonate buffers (10-20 mM). Reactions of cisplatin (0.25 mM) and pyrodach-2 (0.25 mM) with a synthetic 25-mer: 5′-[…]-3′ (SEQ ID NO: 1) (0.25 mM) were also performed under identical conditions. Reactions were carried out up to 7 days, and ^1H and ^31P NMR spectra were recorded at regular time intervals. Usually, a pulse width of 5 μs with a 1.0 s repetition delay was used for the measurements. Typically, a sweepwidth of 10,000 Hz and 32 K data points were selected to collect the Free Induction Decays. A line broadening factor of 1 Hz was for applied Fourier transformation. […]

[2] = Stability in aqueous solution by 31P NMR; assay type: physicochemical
Protocol: Starting with the bottom spectrum in each panel, spectra were recorded at 24 hour time intervals.
At neutral pH, the isolated monomeric Pt(II) and Pl(IV) complexes of the present invention are stable. […] However, in the same time interval, slow deligation due to the release of the pyrophosphate ligand was evident at pH 4.2 by the appearance of the free pyrophosphate signal at −10.3 ppm. At the same time, an insoluble pyrophosphate-bridged dinuclear platinum(II) product was formed.

[3] = system: fas; test: Apoptotic gene array, real-time PCR: fas; assay type: cell-based; settings: preliminary
Protocol: Preliminary gene expression experiments involving complexes of the present invention as compared to cisplatin (data not shown) were carried out with an apoptotic array containing 84 genes that includes the BCL2 superfamily, both pro- and anti-apoptotic, caspases, the BIR-family, TNF receptor […] factors, p53 and its congeners, and fas associated members by real-time PCR. A closer look at the two sets of gene expressions clearly indicates a number of differences in the expression patterns. […] Specifically, fas was over-expressed by 6-fold compared to the control, and TNFRS genes such as TNFRSF-10B was overexpressed by 2-3 folds over controls. These latter receptor factors belong to the fas superfamily.

[4] = system: A2780/C30 cells; test: Cellular accumulation of platinum by atomic absorption, A2780/C30; assay type: cell-based, human; settings: at its IC50 value
[5] = system: CHO cell line; test: Cytotoxic assay, CHO; assay type: cell-based
Source text: In some embodiments, the complexes of the present invention are useful for treating various cancers. […] The complexes of the present invention are particularly desirable because they may have reduced toxicity in vivo.

[6] = system: synthetic 25-mer oligonucleotide (SEQ ID NO:1); test: Platinum-DNA binding by NMR, 25-mer oligonucleotide; settings: 1H NMR, identical conditions for both complexes
Protocol: as §1, §2

[7] = system: A2780/C30 cisplatin-resistant ovarian cell line; test: Clonogenic assay, cisplatin/carboplatin-resistant C30; assay type: cell-based, human; settings: 1 hour drug treatment, 1 week colony formation
Protocol: A cisplatin-resistant Ovarian cell line (C30) (Hamaguchi, et al., 1993), obtained from Dr. Thomas Hamilton (Fox Chase Cancer Center, Philadelphia, Pa.), was treated with the monomeric platinum complexes of the present invention (shown in FIG. 2). This cell line is also cross resistant to carboplatin. Cells were cultured on monolayer using RPMI 1640 supplemented with 10% fetal bovine serum, 2 mM glutamine, 0.25 units/mL insulin and penicillin/streptomycin in a 37 degrees C. incubator continuously gassed with 5% CO2. Cells were subcultured using 0.025% trypsin in HBSS to maintain cells in exponential growth.
IC50 values were determined using a clonogenic assay. Briefly, 500 C30 cells from a single cell suspension were plated onto 60 mm Petri plates 24 hours before drug treatment to permit cell attachment. On the day of drug treatment, the medium was decanted and replaced with the drug and these treated cells were placed back into the 37 degrees C. incubator for 1 hour. Triplicate plates were set up for each drug concentration. After the one hour drug treatment, the drug containing medium was decanted and replaced with fresh medium. These plates were returned to the 37 degrees C. incubator for 1 week for colony formation. Colonies were fixed and stained using 2% crystal violet in absolute methanol. Colonies containing more than 50 cells were scored. The number of scored colonies from the triplicate plates was averaged and this number was divided by the number of cells plated to obtain a value for the fraction of cells forming colonies. These values for fraction of cells forming colonies were then corrected for plating efficiency by dividing them by the number of cells forming colonies in plates that were not treated with drug.

[8] = system: DNA of A2780 cells; test: DNA-bound platinum in cells by atomic absorption; assay type: cell-based, human; settings: up to 50 micromolar, treated up to 24 hours
Protocol: For DNA-Pt measurements, 1.0×10^7 cells were seeded in T75 cm^2 flasks. After 24 hr, the platinum complexes were added at the different concentrations 0, 10, 20, 30 and 50 μM. Cells were treated with the platinum complexes for 24 hours. Following treatment, the medium was removed and cells were washed with ice-cold PBS. The cells were trypsinized and centrifuged into a pellet. DNA was extracted using a Wizard® SV DNA purification kit (Promega). The DNA was quantitatively estimated from the absorption at 260 nm using a NanoDrop UV-Vis instrument.

Q: With `NC1CCCCC1N.O=P([O-])(O)OP(=O)([O-])O.[Pt+2]` [dach-2, (Trans-1,2-cyclohexanediamine)(dihydrogenpyrophosphato)platinum(II)] as the compound, how does the “adduct formation with nucleotides” value [1] read?
A: no detectable NMR signals

Q: What about the “decomposition / deligation at pH 4.2” value ([2]; pH 4.2, six days) of the same compound?
A: considerable decomposition

Q: And the “decomposition at pH 8” value ([2]; pH 8, up to six days)?
A: no decomposition

Q: And the “fas over-expression compared to the control” value [3]?
A: 6 fold

Q: And the “platinum accumulation in the resistant cell lines” value [4]?
A: 1.4 ng Pt/10^6 cells

Q: What about the IC50 [5] of the same compound?
A: 35 ± 5 µM

Q: And the “DNA binding, 25-mer oligonucleotide” value [6]?
A: does not exhibit any measurable DNA binding

Q: And the IC50 [7]?
A: 48 ± 5 µM

Q: And the DNA-bound platinum [8]?
A: No DNA-bound platinum was detected
